Data from paper PMC4729491, “The Cellular Thioredoxin-1/Thioredoxin Reductase-1 Driven Oxidoreduction Represents a Chemotherapeutic Target for HIV-1 Entry Inhibition” (PLoS ONE, 2016).
Where a name gives a salt, the structure may show the parent alone. Read-outs that look alike come from different tables or passages of the source.

Legend:
[1] = tested on: HIV-1(IIIB); assay: microbe, parasite or virus in culture; type: cell-based; conditions: for Ratio IC50/EC50 HIV-1 (CEM): CEM cells; for EC50: Human immunodeficiency virus 1, IIIB, CCRF-CEM, read-out: EC50 HIV-1 (IIIB)
Procedure: (§1) To study the antiviral activity in transformed cells, CEM cells were suspended in fresh culture medium and infected with HIV-1(IIIB) or HIV-2(ROD) at 100 x CCID50 (cell culture infective dose 50%) per ml of cell suspension. Infected cell suspension (100 μl; 3 x 10^5 cells/ml) was transferred to a 96-well microplate, mixed with 100 μl of the appropriate dilutions of compounds, and further incubated at 37°C. After 4 days, giant cell formation was recorded microscopically and the number of giant cells was estimated microscopically as percentage of the number of giant cells present in the non-treated virus-infected cell cultures.

[2] = tested on: HIV-1; assay: Infectivity (TZM-bl) of virus particles produced by ACH-2 cells in presence of compound; type: cell-based; conditions: for carry-over control: residual compound as cause of decreased infectivity: compound added at 1/100 of concentration in viral growth culture
Procedure: To measure the infectivity of particles produced in the presence of the compounds, washed persistently HIV-1-infected ACH-2 cells (1 x 10^6 cells/ml) were cultured with 100 nM PMA in the presence of the indicated concentration of compounds. After 3 days, the p24 content of the clarified supernatant (see virus expression) was measured. The cell supernatant was then used for an infectivity test (see infectivity assay) without the further addition of any compound to the cultures. The final dilution of the ACH-2 supernatant in the infectivity test was 1:100. A control experiment was performed, in which virus particles produced without the addition of compound, were used for the infectivity test. Additionally, the same amount of compound that could have been carried over with the virus containing supernatant in the original experiment was added to the infectivity test (final concentration: 1/100 of the indicated amount in the viral growth culture).

[3] = tested on: HeLa cells; assay: Cytostatic activity assay, HeLa cells; type: cell-based; conditions: Homo sapiens, 72 h, read-out: IC50 HeLa
Procedure: (§2) The cytostatic activity assay using transformed cell lines was also performed in 96-well microtiter plates. 5–7.5 x 10^4 human CD4^+ T-lymphocyte CEM or human cervix carcinoma HeLa cells and a given amount of the test compounds were added to each well. The cells were allowed to proliferate for 72 h (96 h for HeLa) at 37°C in a humidified CO2-controlled atmosphere. At the end of the incubation period, the cells were counted in a Coulter counter (type ZM, Coulter Electronics, Analis, Ghent, Belgium).

[4] = tested on: HIV-1(BaL); assay: Antiviral activity in PHA-stimulated PBMCs (p24 ELISA), HIV-1(BaL); type: cell-based; conditions: Human immunodeficiency virus 1, BAL, PBMC; for EC50: read-out: EC50 HIV-1 (BAL)
Procedure: (§3) To test the antiviral activity in fresh, PHA-stimulated PBMCs, an experiment was performed as previously described. Briefly, the cells were preincubated with HIV-1(IIIB), HIV-1(BaL) or HIV-1(HE) for 1 h at 37°C, using a viral load of 1000 x CCID50 per ml. Then, cell suspensions containing virus and 2 x 10^5 PBMCs were seeded in a 96-well microtiter plate and a serial dilution of compound was added, in a total volume of 200 μl. After 4 days, the cells were passaged and fresh culture medium, containing IL-2 and compound, was added. Three days later, cellular supernatants were harvested and viral replication in the presence of the compounds was quantified using a p24 enzyme-linked immunosorbent assay (ELISA) (Perkin Elmer, Brussels, Belgium). The half maximal effective concentration (EC50) was defined as the compound concentration that is required to block viral replication by 50%.

[5] = tested on: HIV-2(ROD); assay: Inhibition of HIV-2(ROD)-induced giant cell formation in CEM cell cultures; type: cell-based; conditions: for Ratio IC50/EC50 HIV-2 (CEM): CEM cells; for EC50: Human immunodeficiency virus 2, CCRF-CEM, read-out: EC50 HIV-2 (ROD)
Procedure: as §1

[6] = tested on: HIV-1(HE); assay: Antiviral activity in PHA-stimulated PBMCs (p24 ELISA), HIV-1(HE); type: cell-based; conditions: Human immunodeficiency virus 1, PBMC, read-out: EC50 HIV-1 (HE)
Procedure: as §3

[7] = tested on: HIV-1(IIIB); assay: Antiviral activity in PHA-stimulated PBMCs (p24 ELISA), HIV-1(IIIB); type: cell-based; conditions: Human immunodeficiency virus 1, IIIB, PBMC, read-out: EC50 HIV-1 (IIIB)
Procedure: as §3

[8] = tested on: CEM cells; assay: Cytostatic activity assay, CEM cells; type: cell-based; conditions: Homo sapiens, CCRF-CEM, 72 h; inhibition of cell proliferation by 50%, three-day drug-exposed; mean ± SD
Procedure: as §2

[9] = previously known structural properties ref 20-22; cited from earlier work
[10] = tested on: PHA-stimulated PBMCs; assay: Toxicity in PHA-stimulated PBMCs (trypan blue cell counting); type: cell-based, human; conditions: Homo sapiens, PBMC, 168 h, read-out: IC50 PBMC
Procedure: A similar experiment was performed to study the toxicity of the compounds in fresh, PHA-stimulated, PBMCs. Mock-infected PBMCs (2 x 10^5 cells) were exposed to a serial dilution of compound, in a total volume of 200 μl. Cells were passaged after 4 days. Cell survival and proliferation was assessed at day 7 using trypan blue-based cell counting with the Countess Automated Cell Counter (Invitrogen, Ghent, Belgium). The IC50 was defined as the concentration of the compound that inhibited cell proliferation by 50%.

[11] = tested on: HuT-78/HIV-1 and Sup-T1 cells; assay: cells; type: cell-based; conditions: read-out: IC50 inhibition of syncytia formation
Procedure: Persistently infected HuT-78/HIV-1 cells were thoroughly washed to eliminate free virions. Next, 1 x 10^5 HuT-78/HIV-1 cells were co-cultivated with 1 x 10^5 Sup-T1 cells in 96-well plates (200 μl/well) during 20 h at 37°C, in the presence or absence of a serial dilution of compound. Afterwards, the formation of syncytia was evaluated microscopically. The EC50 was defined as the compound concentration required to suppress syncytia formation by 50%.

[12] = tested on: HIV-1(IIIB); type: cell-based; conditions: for time post-infection at which activity is lost: MT-4 cells, second TOA experiment, DS-8000 12.5 μM, AMD3100 625 nM
Procedure: Two time-of-drug-addition (TOA) experiments were performed and adopted from previously reported methods. Briefly, MT-4 cells were infected with HIV-1(IIIB) at a multiplicity of infection of 0.5. Following a 1 hour adsorption period, cells were washed, distributed in a 96-well tray at 100,000 cells per 200 μl per well and incubated at 37°C.
For the first experiment, test compounds were added to the infected cell cultures at different time points (i.e. 0, 1, 2, 3, 4, 5, 6, 7, 8, 9, 24, and 25 h) after the start of infection.
In a second experiment, the resolution of the assay was increased by evaluating early time points in more detail. Therefore, the test compounds were added to the infected cell cultures at the following time points after the start of infection: 0, 15, 30, 45, 100 and 180 min; and 24 as well as 25 h.
Product added at time points 0, 15, 30 and 45 min was present at the start of the viral infection and washed away after 1 hour. After washing, fresh product was added to maintain viral suppression throughout the remaining of the experiment.
HIV-1 production was determined at 31 h post infection via a p24 ELISA (Perkin Elmer, Brussels, Belgium).

[13] = Human immunodeficiency virus 1, SUP-T1, 24 h

| Molecule | Ratio IC50/EC50 HIV-1 (CEM) [1] | EC50 [1] [µM] | infectivity of virus particles produced in presence of compound (normalized for equal p24) ([2]; ACH-2 cultures exposed to compound 3 days, supernatant 1:100 titrated on TZM-bl) | carry-over control: residual compound as cause of decreased infectivity [2] | IC50 [3] [µM] | EC50 [4] [µM] | Ratio IC50/EC50 HIV-2 (CEM) [5] | EC50 [5] [µM] | EC50 [6] [µM] | EC50 [7] [µM] | IC50 [8] [µM] | Hydrophobicity [9] | IC50 [10] [µM] | IC50 [11, 13] [µM] | inhibition in time-of-addition assay ([12]; 625 nM) | time post-infection at which activity is lost [12] [min] | IC50 ([11]; Human immunodeficiency virus 1, cocultures of HuT-78/HIV-1 and Sup-T1 cells, ~24 hours) [µM] | inhibition at 25 µM ([4]; read-out: inhibition at indicated concentration) [%] |
| --- | --- | --- | --- | --- | --- | --- | --- | --- | --- | --- | --- | --- | --- | --- | --- | --- | --- | --- |
| CN(C)c1ccc([Te]CCCOc2ccccc2)cc1 [TE-14, N,N-dimethyl-4-aminophenyl 3-phenoxypropyl telluride] | 26 | 0.86 ± 0.21 | substantially less infectious virus particles | could not be explained by the presence of residual compound | 25 ± 4 | 9.6 ± 10 | 16 | 1.4 ± 0.56 | 5.4 ± 3 | 4.9 ± 2.1 | 22 ± 2 | Hydrophobic | 9.9 ± 2.5 | > 250 | – | – | – | – |
| c1cc(CN2CCCNCCNCCCNCC2)ccc1CN1CCCNCCNCCCNCC1 [AMD3100] | – | – | – | – | – | – | – | – | – | – | – | – | – | – | fully inhibitory | 30 to 45 | 9.3 ± 4.3 | – |
| CCCC[Te]CCCS(=O)(=O)O [TE-20, 3-(butyltelluro)propanesulfonic acid sodium salt] | 38 | 2.7 ± 2.6 | – | could not be explained by the presence of residual compound | 101 ± 3 | ≥ 25 | 36 | 2.9 ± 1.3 | 11 ± 9 | 18 ± 12 | 103 ± 27 | Hydrophilic | 75 ± 53 | > 250 | – | – | – | 30 to 50 |
| dextran sulphate [DS-8000] | – | – | – | – | – | – | – | – | – | – | – | – | – | – | – | 30 to 45 | – | – |
